According to PubChem BioAssay (NCI):
“And” between values parts separate entries of the source, which are not always exact repeats. Identical values can stand only once.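 Results reflect a 48-hour exposure of cells in 96-well plates to compound at five concentrations. GI50 = concentration required for 50% inhibition of growth. TGI denotes the concentration required for complete inhibition of growth.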

How the values were obtained:
Test in all cases: NCI tumour cell line growth inhibition, 48 h
BT-549 breast = system: BT-549 breast
HS 578T breast = system: HS 578T breast
MCF7 breast = system: MCF7 breast
NCI/ADR-RES ovarian = system: NCI/ADR-RES ovarian
PC-3 prostate = system: PC-3 prostate
T-47D breast = system: T-47D breast

| SMILES | GI50 (BT-549 breast) [µM] | TGI (BT-549 breast) | GI50 (HS 578T breast) [µM] | TGI (HS 578T breast) [µM] | GI50 (MCF7 breast) [µM] | TGI (MCF7 breast) [µM] | GI50 (NCI/ADR-RES ovarian) [µM] | TGI (NCI/ADR-RES ovarian) | GI50 (PC-3 prostate) [µM] | TGI (PC-3 prostate) | GI50 (T-47D breast) [µM] | TGI (T-47D breast) |
| --- | --- | --- | --- | --- | --- | --- | --- | --- | --- | --- | --- | --- |
| CC1=C(C(=O)Nc2ccc(F)c(Cl)c2)C(c2ccc(Cl)cc2)NC(=O)N1 (configuration not stated) | 14.6 | 32.6 µM | 21.5 | 51.1 | 18.4 | 44.9 | 25.4 | 75.2 µM | 15.1 | 31.9 µM | > 100 | > 100 µM |
| CCc1ccc2c(c1)C(=O)c1c-2n(CCCBr)c(=O)c2cc([N+](=O)[O-])ccc12 | > 50 | > 50 µM | 18.2 | > 50 | 19.9 | > 50 | > 50 | > 50 µM | > 50 | > 50 µM | > 50 | > 50 µM |
| CC(C)c1ccc(C(C)C(=O)N(CC2=C(C(C)c3ccccn3)c3ccccc3C2)C(C)C)cc1 (configuration not stated) |  |  | 1.84 | 13.6 | 3.23 | 11.4 | 2.67 | 19.2 µM | 2.66 | > 100 µM | 2.94 | > 100 µM |
| CSCCCN(CCCSC)CCCSC |  | > 100 µM |  |  |  | > 100 |  | > 100 µM |  | > 100 µM |  | > 100 µM |
| Clc1cccc(Cc2cn3cc(-c4ccccc4)nc3s2)c1Cl | 88.2 | > 100 µM | 17.4 | > 100 | 11.5 | > 100 | 76.4 | > 100 µM | 53.7 | > 100 µM | 0.963 | > 100 µM |
| Fc1ccc(Nc2ncnc3ccc(-c4cnc5[nH]ccc5c4)cc23)cc1Cl | 3.11 | > 27.9 µM | 2.66 | > 45.9 | 0.335 | > 38 | 2.98 | > 87.8 µM | 3.54 | 27.3 µM | 0.592 | 13.9 µM |
| O=C(NCCNc1nccc(-c2c(-c3cccc(O)c3)nc3sccn23)n1)c1ccccc1O | 4.74 | 34.9 µM | 3.15 | 16 | 3.27 | 19.9 | 6.64 | 70.1 µM | 4.36 | 55.1 µM | 3.65 | 20.5 µM |
| CC1=C(C#N)C23C(=O)c4ccccc4C(O)=C2C(=O)C=CC3(O)N1Cc1ccccc1 (configuration not stated) | 36.2 | > 100 µM | 26.2 | > 100 | 41.6 | > 100 | 2.84 | 30.6 µM | 47 | > 100 µM | 25.8 | 71.6 µM |
| O=C(CN1CCN(c2cc3c(cc2F)c(=O)c(C(=O)N/N=C/c2ccccc2O)cn3C2CC2)CC1)N/N=C\c1ccccc1O | 1.51 | > 100 µM | 8.57 | > 100 | 0.398 | > 100 | 0.91 | > 100 µM | 0.531 | > 100 µM | 0.796 | > 100 µM |
| CCCCCCCC(=O)SCC/C=C/[C@@H]1CC(=O)NCc2cccc(n2)C2=N[C@@](C)(CS2)C(=O)N[C@@H](C(C)C)C(=O)N1 | 5.04 | > 33.3 µM | 0.378 | > 33.3 | 0.623 | > 33.3 | 31.7 | > 33.3 µM | 0.657 | > 33.3 µM | 0.412 | 3 µM |
| O=c1n(CC2CO2)c(=O)n(CC2CO2)n1CC1CO1 (configuration not stated) | 27.8 | > 100 µM | > 100 | > 100 | 3.68 | > 100 | 19.5 | > 100 µM | 29.2 | > 100 µM | 6.64 | > 100 µM |
| COc1cc(C(=O)/C=C/c2sc(Cl)nc2Cl)cc(OC)c1OC | 1.87 | 3.6 µM | 2.02 | 5.54 | 1.78 | 3.68 | 1.97 | 4.07 µM | 1.8 | 3.7 µM | 2.14 | 5.35 µM |
| O=C(CCl)N1c2ccccc2Oc2ccc3ccccc3c21 | 1.79 | 3.56 µM | 2.29 |  |  |  | 2.36 | > 24 µM | 1.72 | 3.62 µM | 1.69 | 4.15 µM |
| O=C(O)c1cc(C(=O)O)cc(N2C(=O)c3ccccc3C2=O)c1 |  | > 100 µM |  | > 100 |  | > 100 |  | > 100 µM |  | > 100 µM |  | > 100 µM |
| O=C1NNC(=O)c2ccccc2SSc2ccccc2C(=O)NNC(=O)c2ccccc2SSc2ccccc21 | 14.1 | 50 µM and > 100 µM | > 100 | > 100 |  | > 100 | 14 | 50 µM and > 100 µM | 24.7 | 50 µM and > 100 µM | 2.34 | 50 µM and 8.18 µM |
| CC[C@@]12CCCN3CC[C@]4(c5cccc(OC)c5N(C(C)=O)[C@@H]4CC1)[C@H]32 |  | > 100 µM |  | > 100 |  | > 100 |  | > 100 µM |  | > 100 µM |  | > 100 µM |
| CCOC(=O)Nc1nc2ccc(OCC)cc2s1 | > 100 | > 100 µM | 56.7 | > 100 | 4.14 | > 100 | 7.39 | > 100 µM | > 100 | > 100 µM | 28.8 | > 100 µM |
| CN(C)c1ccc(-c2cc(-c3ccc(Nc4nc(Nc5ccc(Cl)cc5)nc(Nc5ccc(Cl)cc5)n4)cc3)no2)cc1 | 9.07 | 48.9 µM | 3.97 | > 100 | 2.46 | 10.7 | 5.38 | 88.6 µM |  |  | 3.69 | 78.5 µM |
| CNC(=O)c1cc(Oc2ccc3nc(NC(=O)Nc4ccc(Cl)c(C(F)(F)F)c4)sc3c2)ccn1 | 2.64 | 9.73 µM | 1.53 | 6.27 |  |  |  |  |  |  | 0.723 | 3.65 µM |
| Cn1ccnc1C(=O)/C=C/c1ccc(CC(=O)Nc2ccc(Br)cc2)cc1 | 2.93 | 6.43 µM | 7.83 | > 16.7 | 1.84 | > 16.7 | 5.08 | > 16.7 µM | 2.87 | 8.25 µM | 5.5 | > 16.7 µM |
